Consider ten compounds from ChEMBL document CHEMBL1143302, “Identification of 3-amido-4-anilinoquinolines as potent and selective inhibitors of CSF-1R kinase” (Bioorg Med Chem Lett, 2009).

Holding throughout (assay type): ADME, organism-based
Data set [1] is described as follows: Bioavailability in rat at 3 mg/kg, iv and 10 mg/kg, po. Conditions: in vivo.
Data set [2] in a line: Clearance in rat at 3 mg/kg, iv and 10 mg/kg, po. The settings on record: in vivo.
The nature of data set [3]: Volume of distribution at steady state in rat at 3 mg/kg, iv and 10 mg/kg, po. Conditions: in vivo, read-out: Vdss.
The nature of data set [4]: Half life in rat at 3 mg/kg, iv and 10 mg/kg, po. Conditions: in vivo.

Molecules are shown by their SMILES.

For the compound `COc1cc2ncc(C(N)=O)c(Nc3ccc(F)cc3)c2cc1OC`, the bioavailability (as a rule, dose-corrected exposure relative to a reference, in per cent) in data set [1] came out at 96%. The clearance in data set [2] came out at 7 mL/min/kg. The Vd in data set [3] stood at 0.3 L/kg. Further, in data set [4], the half-life (commonly the time needed for the level to fall by half in the phase considered) was 0.9 h.
For the compound `COc1cc2c(Nc3ccc(F)c(Cl)c3)c(C(N)=O)cnc2cc1OCCNC1CC1`, the clearance in data set [2] was determined as 230 mL/min/kg. Moreover, in data set [3], the Vd stood at 30 L/kg. In addition, in data set [4], the half-life was 1.7 h.
The corresponding values for `COc1cc2ncc(C(N)=O)c(Nc3cccc(Cl)c3Cl)c2cc1OC` are 115 mL/min/kg, 4.1 L/kg and 0.5 h.
In the same order, the values of `COc1cc2c(Nc3ccc(F)cc3F)c(C(N)=O)cnc2cc1NCCN(C)C` are 220 mL/min/kg, 36 L/kg and 1.9 h.
The corresponding values for `COc1cc2ncc(C(N)=O)c(Nc3cccc(Cl)c3Cl)c2cc1NCCN1CCCCC1` are 78 mL/min/kg, 8.5 L/kg and 1.6 h.
`COc1cc2ncc(C(N)=O)c(Nc3ccc(F)c(Cl)c3)c2cc1OC` displayed a bioavailability in data set [1] of 24%. The clearance in data set [2] was 59 mL/min/kg. The Vd in data set [3] was found to be 1.8 L/kg. The half-life in data set [4] is 0.6 h.
As to `COc1cc2c(Nc3cccc(Cl)c3Cl)c(C(N)=O)cnc2cc1NCCN(C)C`, in data set [2], the clearance is 90 mL/min/kg. Also, the Vd in data set [3] was 19 L/kg. For the same compound, in data set [4], the half-life was 2.4 h.
For the compound `COc1cc2c(Nc3ccc(F)c(Cl)c3)c(C(N)=O)cnc2cc1OCCN(C)C`, the clearance in data set [2] is 210 mL/min/kg. Moreover, in data set [3], the Vd worked out at 40 L/kg. For the same compound, the half-life in data set [4] is 2.1 h.
The corresponding values for `CCOc1cc2ncc(C(N)=O)c(Nc3cccc(Cl)c3Cl)c2cc1NCCN1CCCCC1` are 110 mL/min/kg, 12 L/kg and 1.6 h.
In turn, `COc1cc2c(Nc3ccc(F)c(Cl)c3)c(C(N)=O)cnc2cc1OCCN1CCCC1` came in with a clearance in data set [2] of 270 mL/min/kg. The Vd in data set [3] amounted to 52 L/kg. Further, the half-life in data set [4] was 2.4 h.
